In US20260182575A1, “MOLECULES HAVING PESTICIDAL UTILITY AND INTERMEDIATES AND PROCESSES RELATED THERETO” (CORTEVA AGRISCIENCE LLC, priority 2022, published 2026):
Several values for one entry are separate records, joined by “and”; a condition that tells them apart may be missing. Equal values may be shown once.

Experiments:
[1] = test system: Green Peach Aphid (Myzus persicae, MYZUPE, GPA); experiment: Bioassay 1: green peach aphid, cabbage seedling foliar spray; assay type: in vivo; conditions: for Average % Control AI: 3 days
Procedure: Bioassay 1: Green Peach Aphid (Myzus persicae, MYZUPE, “GPA”).
Stock solutions of F1 and various active ingredients were prepared initially at a concentration of 4 milligrams per milliliter (mg/mL) for F1 and 0.1 mg/mL for the active ingredients, respectively, using a 1:1 mixture of acetone:methanol as a diluent. Stock solutions were prepared with F1 as well as for each of the active ingredients individually. Test solutions were prepared from the stock solutions. Test solutions were prepared containing F1, the individual active ingredients, and mixtures of F1 with each of the active ingredients. The test solutions for F1 and the individual active ingredients were prepared by adding 750 microliters (μL) of stock solution to a 25 mL glass vial, then adding 750 μL of 1:1 acetone:methanol solvent, followed by the addition of 13.5 mL water with 0.025% Tween® 20 to create a 0.0005% (weight/volume (w/v)) solution. The test solutions containing mixtures of F1, and the individual active ingredients were prepared by adding 750 μL of the active ingredient stock solution to a 25 mL glass vial, followed by 750 μL of the F1 stock solution, then by the addition of 13.5 mL water with 0.025% Tween® 20 to create a test solution containing 0.0005% (w/v) F1 and 0.0005% (w/v) of the active ingredient. Each test solution was serially diluted to create desired doses of test solutions (0.0005% (w/v), 0.000125% (w/v), 0.00003125% (w/v), 0.0000078% (w/v), 0.00000195% (w/v), and 0.0000005% (w/v)). In test solutions containing mixtures of F1 and the active ingredients, the active ingredients were diluted as described above, but the concentration of F1 was held constant (0.04% (w/v)).
The test solutions were tested against GPA using the following procedure: cabbage seedlings, grown in 3-inch pots with 2-3 small (3-5 centimeter (cm)) true leaves, were used as test substrate. The seedlings were infested with 20-50 GPA (wingless adult and nymph stages) one day prior to chemical application. Four pots with individual seedlings were used for each treatment. A hand-held aspirator-type sprayer was used for spraying a solution to both sides of […] leaves until runoff. Reference plants (solvent check) were sprayed with the diluent only (0.025% Tween® 20 and 10% acetone:methanol (1:1) in water). Treated plants were held in a holding room for three days at approximately 25° C. and ambient relative humidity (RH about 20% to about 45%) prior to grading. Evaluation was conducted by counting the number of live aphids per plant under a microscope three days after treatment. Percent control was measured using Abbott's correction formula (W. S. Abbott, J. Econ. Entomol. 18 (1925), pp. 265-267) as follows:
where X=No. of live aphids on solvent check plants and Y=No. of live aphids on treated plants. In Table B1 the “Expected % Control” was calculated using the method described in Colby S. R., Weeds, 1967, 15, 20-22. Bioassay 2: Sweet Potato Whitefly (Bemisia tabaci, BEMITA, “SPW”).

[2] = test system: Fall Armyworm (Spodoptera frugiperda, LAPHFR, FAW); experiment: Bioassay 4: fall armyworm, artificial diet, 128-cell tray; assay type: in vivo; conditions: AI alone
Procedure, shortened: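 Test solutions (0.0000004–0.04% w/v, i.e. 0.00005–5 μg/cm² on diet) were pipetted onto artificial lepidopteran diet and one 2nd-instar larva was placed per cell, 8 replicates per species, held at ~26° C. Live larvae were counted after 5 days; percent control used Abbott's correction against a solvent check.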

[3] = AI alone at the rate of Wt Ratio F1:AI 1:40000 (F1 0.04)
[4] = AI alone at the rate of Wt Ratio F1:AI 1:2564 (F1 0.04)
[5] = AI alone at the rate of Wt Ratio F1:AI 1:640 (F1 0.04)

| Compound | Average % Control AI ([1]; AI alone at the rate of Wt Ratio F1:AI 1:10256 (F1 0.04)) [%] | Average % Control AI [1, 3] [%] | Average % Control AI ([2]; 0.000004 wt %) [%] | Average % Control AI [1, 4] [%] | Average % Control AI [1, 5] [%] | Average % Control AI ([2]; 0.00004 wt %) [%] | Average % Control F1 ([1]; F1 alone, Wt % 0.04 (10^-6), cabbage spray, 3 days after treatment) |
| --- | --- | --- | --- | --- | --- | --- | --- |
| CN1COCN(Cc2cnc(Cl)s2)/C1=N\[N+](=O)[O-] [Thiamethoxam] | 8.5 | 0.0 | 0.0 | – | – | – | – |
| CON=CNC(=O)c1ccc(C2=NOC(c3cc(Cl)cc(Cl)c3)(C(F)(F)F)C2)cc1C (stereo not shown) [Fluxametamide] | – | – | 12.5 | 23.1 | – | – | – |
| CC1=NNC(=O)N(/N=C/c2cccnc2)C1 [Pymetrozine] | – | 15.4 | 0.0 | – | 47.6 | 0.0 | – |
| Chlorfenapyr | – | – | 0.0 | 10.1 | – | 37.5 | – |
| Cc1ccc(COCC(F)(F)F)c(N2C(=O)CS/C2=N\C(=O)Nc2ccc(-c3ncn(-c4ccc(OC(F)(F)F)cc4)n3)cc2F)c1 [F1] | – | – | – | – | – | – | 8.8% and 7.1% and 15.8% |
| Cc1c(COC(=O)[C@@H]2[C@H](/C=C(\Cl)C(F)(F)F)C2(C)C)cccc1-c1ccccc1 (racemic) [Bifenthrin] | – | 16.3 | 12.5 | – | – | 12.5 | – |
| COC(=O)N(C(=O)N1CO[C@@]2(C(=O)OC)Cc3cc(Cl)ccc3C2=N1)c1ccc(OC(F)(F)F)cc1 [Indoxacarb] | – | 0.0 | 0.0 | – | 10.1 | 0.0 | – |
| C[C@]1(COC(=O)C2CC2)[C@@H]2C[C@H](O)[C@@]3(C)Oc4cc(-c5cccnc5)oc(=O)c4[C@H](O)[C@@H]3[C@@]2(C)CC[C@@H]1OC(=O)C1CC1 [Afidopyropen] | – | – | 0.0 | – | – | 0.0 | – |
